Measured values: ChEMBL document CHEMBL1127670, “Comparative molecular field analysis of the antitumor activity of 9H-thioxanthen-9-one derivatives against pancreatic ductal carcinoma 03” (1994)

What follows are molecules tested on Mus musculus (assay: The compound was tested for in vivo growth inhibition of pancreatic ductal adenocarcinoma (Panc 03) in mice.).
Type: functional
In the case of CCN(CC)CCNc1ccc(CNS(=O)(=O)c2ccc(N)cc2)c2sc3ccccc3c(=O)c12, the T/C is reported as 3%. For CCN(CC)CCNc1ccc(/C=N/c2ccccc2)c2sc3ccccc3c(=O)c12, the T/C was 2%. Work on CCCCCCC(=O)OCc1ccc(NCCN(CC)CC)c2c(=O)c3ccccc3sc12 yielded a T/C of 2%.

What follows are molecules tested on Mus musculus (assay: Compound was tested for in vivo growth inhibition of pancreatic ductal adenocarcinoma (Panc 03) in mice, expressed as antitumor efficacy; range is 11-25).
Type: functional
In the case of Cc1ccc(NCCN(C)C)c2c(=O)c3ccccc3sc12, the T/C is reported as 25%. CCN(CC)CCNc1ccc(CNC(=O)c2ccccc2)c2sc3ccccc3c(=O)c12 gave a T/C of 25%. In the case of CCN(CC)CCNc1ccc(CO)c2sc3ccccc3c(=O)c12 [HYCANTHONE], the T/C is reported as 25%.

The molecules below were run on Mus musculus (assay: Compound was tested for in vivo growth inhibition of pancreatic ductal adenocarcinoma (Panc 03) in mice, expressed as antitumor efficacy).
Type: functional
With CCN(CC)CCNc1ccc(CN(CC)S(C)(=O)=O)c2sc3ccccc3c(=O)c12 the T/C was 0%. With CN(C)CCNc1ccc(CNS(C)(=O)=O)c2sc3ccccc3c(=O)c12 the T/C was 0%. CCN(CC)CCNc1ccc(C(N)=O)c2sc3ccccc3c(=O)c12 gave a T/C of 0%. For CCN(CC)CCNc1ccc(CNC(C)=O)c2sc3ccccc3c(=O)c12, the T/C was 0%. Molecule CCN(CC)CCNc1ccc(CN(C)S(C)(=O)=O)c2sc3ccccc3c(=O)c12 has a T/C of 0%. In the case of CCN(C=O)Cc1ccc(NCCN(CC)CC)c2c(=O)c3ccccc3sc12, the T/C is reported as 0%. In the case of CCNCc1ccc(NCCN(CC)CC)c2c(=O)c3ccccc3sc12, the T/C is reported as 0%. CN(C)CCNc1ccc(CN)c2sc3ccccc3c(=O)c12 gave a T/C of 0%.

What follows are molecules tested on Mus musculus (assay: Compound was tested for in vivo growth inhibition of pancreatic ductal adenocarcinoma (Panc 03) in mice, expressed as antitumor efficacy; range is 26-42).
Type: functional
CCN(CC)CCNc1ccc(CN(C)C)c2sc3ccccc3c(=O)c12 was tested, and the T/C was 42%. CCN(CC)CCNc1ccc(COC)c2sc3ccccc3c(=O)c12 showed a T/C of 26%. Molecule CCN(CC)CCNc1ccc(COC(=O)C(C)(C)C)c2sc3ccccc3c(=O)c12 has a T/C of 42%.

Each molecule was assayed on Mus musculus (assay: Compound was tested for in vivo growth inhibition of pancreatic ductal adenocarcinoma (Panc 03) in mice, expressed as antitumor efficacy; range is 0-10).
Type: functional
In the case of CNCc1ccc(NCCN(C)C)c2c(=O)c3ccccc3sc12, the T/C is reported as 10 score (0-10). In the case of CCN(CC)CCNc1ccc(CN(C)S(=O)(=O)CC)c2sc3ccccc3c(=O)c12, the T/C is reported as 0 score (0-10). For CNCc1ccc(NCCCN(C)C)c2c(=O)c3ccccc3sc12, the T/C was 10 score (0-10). In the case of CCN(CC)CCNc1ccc(CNS(=O)(=O)c2ccccc2)c2sc3ccccc3c(=O)c12, the T/C is reported as 10 score (0-10). For CCN(CC)CCNc1ccc(CSC)c2sc3ccccc3c(=O)c12, the T/C was 10 score (0-10).
